Results on 1 compound are retold here after patent publication US10562895B2, “Pyrroloquinoline quinone B crystal form and preparation method therefor” (ZHUCHENG HAOTIAN PHARM CO., LTD, priority 2015, dated 2020).

The data set in a line: hygroscopicity analysis (DVS). The format is physicochemical. The text has this: The crystal form B of pyrroloquinoline quinone provided by the present invention is characterized by solid-state methods, such as an X-ray powder diffraction (XRPD), a thermogravimetric analysis (TG), a differential scanning calorimetry analysis (DSC), an infrared (IR) analysis, and a hygroscopicity analysis (DVS). A solid sample of the crystal form B of pyrroloquinoline quinone obtained in Example 1 was subjected to a hygroscopicity analysis.

The structures appear in SMILES notation.

As to `O=C(O)c1cc(C(=O)O)c2c(n1)C(=O)C(=O)c1cc(C(=O)O)[nH]c1-2` [4,5-Dihydro-4,5-dioxo-1H-pyrrolo[2,3-f]quinoline-2,7,9-tricarboxylic acid], where the note is “at a relative humidity of 85-95%, FIG. 5”, the “water adsorption / solid form change” value was “adsorbed a molecule of water and was converted into a monohydrate compound”. In addition, for the setting “solid sample obtained in Example 1, FIG. 5”, the hygroscopicity result is “low hygroscopicity”.
